Reference: patent US20250332300A1 (priority 2024, published 2025)
Like-named read-outs stand apart in the source and are kept apart here. Starred links: 1 amine or outer side, 2 acyl side, 3 side chain; linkers in the order of their positions; H or OH if unused. Positions of bridges follow the written chain, without caps; N, C: chain ends. Non-standard residues stand in square brackets, D forms with d. Residues, ends and D or L forms follow the SMILES beside them. Trp(5-OH) = N[C@@H](Cc1c[nH]c2ccc(O)cc12)C(=O)O; NMePhe(4-F) = CN[C@@H](Cc1ccc(F)cc1)C(=O)O; X2 = O=C([C@H](Cc1ccc(O)nc1)N[*:1])[*:2]; isoSer(2S) = O=C([C@@H](O)CN[*:1])[*:2]; NMehPhe = CN[C@@H](CCc1ccccc1)C(=O)O; NMeE = CN[C@@H](CCC(=O)O)C(=O)O; Gly(cPr) = N[C@H](C(=O)O)C1CC1; NMeK = CN[C@@H](CCCCN)C(=O)O; NMeDap = CN[C@@H](CN)C(=O)O; NMeC = CN[C@@H](CS)C(=O)O; NMeS = CN[C@@H](CO)C(=O)O; Dap = NC[C@H](N)C(=O)O; X5 = O=C(C[*:2])[*:1]

Assays:
Type in all cases: binding
human HER2 (23-652) [1] = target: T1, human HER2 (23-652) (Homo sapiens, UniProt P04626); assay: TR-FRET competition assay for peptide potency, human HER2; set-up: towards human HER2 (23-652) and mouse HER2 (23-653); made in house; host or cells: mammalian cells
mouse HER2 (23-653) [2] = target: T2, mouse HER2 (23-653) (Mus musculus, UniProt P70424); assay: Surface plasmon resonance (SPR) for assessment of peptide affinity, mouse HER2; set-up: mouse HER2 (23-653) using a Cy5 labeled peptide as a probe; made in house; details: SPR, mouse HER2 extracellular domain, 25° C., 1:1 binding model; read-out: moHER2-SPR-ONC KD
Description: Each protein was immobilized either onto a SA sensorchip (Cytiva, BR-1005-31) or CM5 sensorchip (Cytiva, BR-1005-30) to a density of 800-2000 RU.

human HER2 (23-652) [3] = target: T1, human HER2 (23-652); assay: Surface plasmon resonance (SPR) for assessment of peptide affinity, human HER2; set-up: towards human HER2 (23-652) and mouse HER2 (23-653); made in house; details: SPR, human HER2 extracellular domain, 25° C., 1:1 binding model; read-out: huHER2-SPR-ONC KD
Outline: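 Binding kinetics fitted from sensorgrams with 280 s peptide association then 3000 s dissociation (30 uL/min), using HER2 (23-652) either directly immobilized (SA/CM5) or anti-Fc-captured; 3 M magnesium chloride used for regeneration.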

mouse HER2 (23-653) [4] = target: T2, mouse HER2 (23-653); assay: TR-FRET competition assay for peptide potency, mouse HER2; set-up: mouse HER2 (23-653) using a Cy5 labeled peptide as a probe; made in house; host or cells: mammalian cells; details: TR-FRET competition with Cy5 labeled peptide probe, 0.1 nM mouse HER2, 24 h incubation; read-out: moHER2 TR-FRET IC50
[5] = TR-FRET competition with Cy5 labeled peptide probe, 0.1 nM human HER2, 24 h incubation, read-out: huHER2 TR-FRET IC50

SMILES	IC50 (human HER2 (23-652) [1]; [5]) [nM]	Kd (mouse HER2 (23-653) [2]) [nM]	Kd (human HER2 (23-652) [3]) [nM]	IC50 (human HER2 (23-652) [1]; read-out: huHER2 TR-FRET IC50) [nM]	IC50 (mouse HER2 (23-653) [4]) [nM]	IC50 (human HER2 (23-652) [1]; value in parentheses (**): recalculated after further repetition, read-out: huHER2 TR-FRET IC50, recalculated value achieved after further repetition) [nM]
CC(=O)NCCCC[C@H]1C(=O)N[C@@H](Cc2c[nH]c3ccc(O)cc23)C(=O)N[C@@H](Cc2c[nH]c3ccccc23)C(=O)N[C@@H](C2CC2)C(=O)N(C)[C@H](C(=O)N(C)[C@@H](Cc2ccc(F)cc2)C(=O)N[C@@H](CCCCNC(=O)CCC(C(=O)O)N2CCN(CC(=O)O)CCN(CC(=O)O)CC2)C(N)=O)CNC(=O)CCC[C@H](NC(C)=O)C(=O)N[C@@H](Cc2ccc(O)cc2)C(=O)N[C@@H](CO)C(=O)N(C)[C@@H](CCc2ccccc2)C(=O)N1C (single isomer, unassigned) [Example C35]	< 0.1	< 0.1	< 0.1	–	–	–
CC(=O)N[C@H]1CCC(=O)NC[C@@H](C(=O)N(C)[C@@H](Cc2ccc(F)cc2)C(N)=O)N(C)C(=O)[C@H](C2CC2)NC(=O)[C@H](Cc2c[nH]c3ccccc23)NC(=O)[C@H](Cc2c[nH]c3ccc(O)cc23)NC(=O)[C@H](CO)N(C)C(=O)[C@H](CCc2ccccc2)N(C)C(=O)[C@H](CO)NC(=O)[C@H](Cc2ccc(O)nc2)NC1=O [Example A1, (3S,6S,9S,12S,15S,18S,21S,24S,27S)-9-((1H-indol-3-yl)methyl)-27-acetamido-N—((S)-1-amino-3-(4-fluorophenyl)-1-oxopropan-2-yl)-6-cyclopropyl-12-((5-hydroxy-1H-indol-3-yl)methyl)-15,21-bis(hydroxymethyl)-24-((6-hydroxypyridin-3-yl)methyl)-N,4,16,19-tetramethyl-5,8,11,14,17,20,23,26,30-nonaoxo-18-phenethyl-1,4,7,10,13,16,19,22,25-nonaazacyclotriacontane-3-carboxamide] (Ac-E[X2]S[NMehPhe][NMeS][Trp(5-OH)]W[Gly(cPr)][NMeDap][NMePhe(4-F)]-NH2; lactam 1-9)	–	98	97	111	224	–
CC(=O)NCCCC[C@H]1C(=O)N[C@@H](Cc2c[nH]c3ccc(O)cc23)C(=O)N[C@@H](Cc2c[nH]c3ccccc23)C(=O)N[C@@H](C2CC2)C(=O)N(C)[C@H](C(=O)N(C)[C@@H](Cc2ccc(F)cc2)C(N)=O)CCC(=O)NC[C@H](O)C(=O)N[C@@H](Cc2ccc(O)cc2)C(=O)N[C@@H](CO)C(=O)N(C)[C@@H](CCc2ccccc2)C(=O)N1C [Example A23, (3S,6S,9S,12S,15S,18S,21S,24S,30S)-6-((1H-indol-3-yl)methyl)-12-(4-acetamidobutyl)-N-((S)-1-amino-3-(4-fluorophenyl)-1-oxopropan-2-yl)-3-cyclopropyl-24-hydroxy-9-((5-hydroxy-1H-indol-3-yl)methyl)-21-(4-hydroxybenzyl)-18-(hydroxymethyl)-N,1,13,16-tetramethyl-2,5,8,11,14,17,20,23,27-nonaoxo-15-phenethyl-1,4,7,10,13,16,19,22,26-nonaazacyclotriacontane-30-carboxamide] ([isoSer(2S)]YS[NMehPhe][NMeK](Ac)[Trp(5-OH)]W[Gly(cPr)][NMeE][NMePhe(4-F)]-NH2; lactam N-9)	–	2.7	–	3	5.5	–
CC(=O)NCCCC[C@H]1C(=O)N[C@@H](Cc2c[nH]c3ccc(O)cc23)C(=O)N[C@@H](Cc2c[nH]c3ccccc23)C(=O)N[C@@H](C2CC2)C(=O)N(C)[C@H](C(=O)N(C)[C@@H](Cc2ccc(F)cc2)C(N)=O)CSCC(=O)NC[C@H](NC(C)=O)C(=O)N[C@@H](Cc2ccc(O)cc2)C(=O)N[C@@H](CO)C(=O)N(C)[C@@H](CCc2ccccc2)C(=O)N1C [Example A51, (3R,6S,9S,12S,15S,18S,21S,24S,27S)-9-((1H-indol-3-yl)methyl)-27-acetamido-15-(4-acetamidobutyl)-N-((S)-1-amino-3-(4-fluorophenyl)-1-oxopropan-2-y1)-6-cyclopropyl-12-((5-hydroxy-1H-indol-3-yl)methyl)-24-(4-hydroxybenzyl)-21-(hydroxymethyl)-N,4,16,19-tetramethyl-5,8,11,14,17,20,23,26,30-nonaoxo-18-phenethyl-1-thia-4,7,10,13,16,19,22,25,29-nonaazacyclohentriacontane-3-carboxamide] (Ac-[Dap]YS[NMehPhe][NMeK](Ac)[Trp(5-OH)]W[Gly(cPr)][NMeC][NMePhe(4-F)]-NH2; linker 1-9 via X5)	–	10	7.3	–	15	–
CC(=O)NCCCC[C@H]1C(=O)N[C@@H](Cc2c[nH]c3ccc(O)cc23)C(=O)N[C@@H](Cc2c[nH]c3ccccc23)C(=O)N[C@@H](C2CC2)C(=O)N(C)[C@H](C(=O)N(C)[C@@H](Cc2ccc(F)cc2)C(=O)N[C@@H](CCCCNC(=O)CN2CCN(CC(=O)O)CCN(CC(=O)O)CCN(CC(=O)O)CC2)C(N)=O)CNC(=O)CCC[C@H](NC(C)=O)C(=O)N[C@H](Cc2ccc(O)cc2)C(=O)N[C@H](CO)C(=O)N(C)[C@@H](CCc2ccccc2)C(=O)N1C [Example C36]	–	472	107	–	396	–
COCCOCCOCCOCCOCCOCCOCCOCCOCCOCCOCCOCCC(=O)N[C@H]1CCCC(=O)NC[C@@H](C(=O)N(C)[C@@H](Cc2ccc(F)cc2)C(=O)N[C@@H](CCCCNC(=O)CN2CCN(CC(=O)O)CCN(CC(=O)O)CCN(CC(=O)O)CC2)C(N)=O)N(C)C(=O)[C@H](C2CC2)NC(=O)[C@H](Cc2c[nH]c3ccccc23)NC(=O)[C@H](Cc2c[nH]c3ccc(O)cc23)NC(=O)[C@H](CCCCNC(C)=O)N(C)C(=O)[C@H](CCc2ccccc2)N(C)C(=O)[C@H](CO)NC(=O)[C@H](Cc2ccc(O)cc2)NC1=O [Example C37]	0.1	0.3	–	–	0.4	–

Next, values leading:

IC50 (human HER2 (23-652) [1]; [5]) [nM]	Kd (mouse HER2 (23-653) [2]) [nM]	Kd (human HER2 (23-652) [3]) [nM]	IC50 (human HER2 (23-652) [1]; read-out: huHER2 TR-FRET IC50) [nM]	IC50 (mouse HER2 (23-653) [4]) [nM]	IC50 (human HER2 (23-652) [1]; value in parentheses (**): recalculated after further repetition, read-out: huHER2 TR-FRET IC50, recalculated value achieved after further repetition) [nM]	SMILES
–	93	–	82	162	–	CC(=O)N[C@H]1CCC(=O)NC[C@@H](C(=O)N(C)[C@@H](Cc2ccc(F)cc2)C(N)=O)N(C)C(=O)[C@H](C2CC2)NC(=O)[C@H](Cc2c[nH]c3ccccc23)NC(=O)[C@H](Cc2c[nH]c3ccc(O)cc23)NC(=O)[C@H](CO)N(C)C(=O)[C@H](CCc2ccccc2)N(C)C(=O)[C@H](CO)NC(=O)[C@H](Cc2ccc(O)cc2)NC1=O [Example A25, (3S,6S,9S,12S,15S,18S,21S,24S,27S)-9-((1H-indol-3-yl)methyl)-27-acetamido-N—((S)-1-amino-3-(4-fluorophenyl)-1-oxopropan-2-yl)-6-cyclopropyl-12-((5-hydroxy-1H-indol-3-yl)methyl)-24-(4-hydroxybenzyl)-15,21-bis(hydroxymethyl)-N,4,16,19-tetramethyl-5,8,11,14,17,20,23,26,30-nonaoxo-18-phenethyl-1,4,7,10,13,16,19,22,25-nonaazacyclotriacontane-3-carboxamide]
–	10	5.5	–	7.6	–	CC(=O)N[C@H]1CCCC(=O)NC[C@@H](C(=O)N(C)[C@@H](Cc2ccc(F)cc2)C(=O)N[C@@H](CCCCNC(=O)CN2CCN(CC(=O)O)CCN(CC(=O)O)CCN(CC(=O)O)CC2)C(N)=O)N(C)C(=O)[C@H](C2CC2)NC(=O)[C@H](Cc2c[nH]c3ccccc23)NC(=O)[C@H](Cc2c[nH]c3ccc(O)cc23)NC(=O)[C@H](CCCCNC(=O)CC(=O)O)N(C)C(=O)[C@H](CCc2ccccc2)N(C)C(=O)[C@H](CO)NC(=O)[C@H](Cc2ccc(O)cc2)NC1=O [Example C19]
13	9.3	–	–	13	11	CC(=O)NCCCC[C@H]1C(=O)N[C@@H](Cc2c[nH]c3ccc(O)cc23)C(=O)N[C@@H](Cc2c[nH]c3ccccc23)C(=O)N[C@@H]([C@H](C)O)C(=O)N(C)[C@H](C(=O)N(C)[C@@H](Cc2ccc(F)cc2)C(=O)N[C@@H](CCCCNC(=O)N2CCN(CC(=O)O)CC2)C(=O)N[C@@H](CCCCNC(=O)CN2CCN(CC(=O)O)CCN(CC(=O)O)CCN(CC(=O)O)CC2)C(N)=O)CNC(=O)CC[C@H](NC(C)=O)C(=O)N[C@@H](Cc2ccc(O)cc2)C(=O)N[C@@H](CO)C(=O)N(C)[C@@H](CCc2ccccc2)C(=O)N1C [Example C24]
